US20190055279A1, “NOVEL POLYPEPTIDES WITH IMPROVED PROTEOLYTIC STABILITY, AND METHODS OF PREPARING AND USING SAME” (TUFTS UNIVERSITY, priority 2015, published 2019)
Entries after “also recorded” stand apart in the source; their conditions may differ.

Assays:
[1] = target: T1, DPP4 (Homo sapiens, UniProt P27487); experiment: DPP4 degradation of GLP-2 peptides: incubation with recombinant DPP4, then GLP-2R reporter assay; conditions: GLP-2R readout
Method: Peptides were incubated with vehicle or recombinant DPP4. Serial dilutions of GLP2-1 and GLP2-4 were then applied to HEK293 cells, which had been transfected with cDNA encoding human GLP-2R and a cAMP-responsive reporter gene.
Peptides were incubated with recombinant DPP4. Serial dilutions of GLP-2 and GLP2-4 were then applied to HEK293 cells, which had been transfected with cDNA encoding human GLP-2R and a cAMP-responsive reporter gene. […] N=4, mean+SEM.
DPP4 resistance (FIG. 13): Lipidated peptides are compared with the prototype, F-GLP2-palm. After an overnight incubation (16 hrs) in the presence vs. the absence of DPP4, receptor mediated function is assessed as shown elsewhere herein. As a DPP4 susceptible control, parallel experiments are done using GLP-2. […] Following overnight preincubation, serial dilutions of ligands were prepared and added to GLP-2R expressing cells for 4 hours. A luciferase reporter gene assay was used to monitor Gαs coupled second messenger signaling.

[2] = target: T1, DPP4; experiment: Sensitivity to DPP4: overnight incubation with recombinant DPP4 or vehicle, then receptor agonist bioassay; conditions: for DPP4 degradation / resistance (in words): overnight incubation with or without DPP4, readout at cognate receptor
Method: Plotting concentration versus the luciferase activity yielded quantitative parameters for combined binding (potency) and signaling (efficacy) in a single step. […] DPP4 treated peptides: 10 μl of 0.26 mM peptide were incubated with 2 μL DPP4 in buffer ±DMSO for 18 hrs. Control peptides: 10 μl of 0.26 mM peptide was added to buffer ±DMSO. The final DMSO concentration was the same for all peptides and all peptides were diluted to 0.26 mM concentrations for the DPP4 assay.
Compounds are incubated overnight at 37° C. in the presence of recombinant DPP4 or vehicle (TRIS buffer). The samples are then assessed in GLP-1R agonist assays.
Compounds were incubated overnight at 37° C. in the presence of recombinant DPP4 or vehicle (TRIS buffer, pH 8.0). The samples were then assessed in GLP1R agonist assays as described elsewhere herein.

T1 sequence (P27487 whole entry, species assumed): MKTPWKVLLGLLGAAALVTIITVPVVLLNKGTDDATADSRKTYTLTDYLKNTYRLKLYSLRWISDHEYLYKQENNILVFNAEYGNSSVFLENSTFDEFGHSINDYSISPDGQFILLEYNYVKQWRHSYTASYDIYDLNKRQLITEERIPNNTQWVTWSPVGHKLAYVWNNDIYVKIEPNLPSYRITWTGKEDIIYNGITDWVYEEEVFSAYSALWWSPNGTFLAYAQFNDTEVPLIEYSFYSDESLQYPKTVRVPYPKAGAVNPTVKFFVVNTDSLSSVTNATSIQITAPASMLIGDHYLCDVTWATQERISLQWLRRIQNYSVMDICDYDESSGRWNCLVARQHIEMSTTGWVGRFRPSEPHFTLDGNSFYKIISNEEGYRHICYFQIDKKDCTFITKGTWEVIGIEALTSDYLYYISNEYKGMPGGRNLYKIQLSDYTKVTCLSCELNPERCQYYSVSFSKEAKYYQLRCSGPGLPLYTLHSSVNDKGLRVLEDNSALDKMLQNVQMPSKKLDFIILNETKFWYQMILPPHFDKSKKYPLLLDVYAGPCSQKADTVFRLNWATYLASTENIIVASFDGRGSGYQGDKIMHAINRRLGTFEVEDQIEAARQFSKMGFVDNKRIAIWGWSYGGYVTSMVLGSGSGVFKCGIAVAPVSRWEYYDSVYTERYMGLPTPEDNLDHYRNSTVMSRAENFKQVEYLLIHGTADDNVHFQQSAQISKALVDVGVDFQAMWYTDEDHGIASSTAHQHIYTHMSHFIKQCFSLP

DPP4 degradation / resistance (in words) [2]	Molecule	other results
–	CC[C@H](C)[C@H](NC(=O)[C@H](Cc1ccccc1)NC(=O)[C@H](CC(=O)O)NC(=O)[C@H](CCCNC(=N)N)NC(=O)[C@H](C)NC(=O)[C@H](C)NC(=O)[C@H](CC(C)C)NC(=O)[C@H](CC(N)=O)NC(=O)[C@H](CC(=O)O)NC(=O)[C@H](CC(C)C)NC(=O)[C@@H](NC(=O)[C@@H](NC(=O)[C@H](CC(N)=O)NC(=O)[C@H](CCSC)NC(=O)[C@H](CCC(=O)O)NC(=O)[C@H](CC(=O)O)NC(=O)[C@H](CO)NC(=O)[C@H](Cc1ccccc1)NC(=O)[C@H](CO)NC(=O)CNC(=O)[C@H](CC(=O)O)NC(=O)[C@H](C)NC(=O)[C@H](Cc1c[nH]cn1)NCC(F)(F)F)[C@@H](C)O)[C@@H](C)CC)C(=O)N[C@@H](CC(N)=O)C(=O)N[C@@H](Cc1c[nH]c2ccccc12)C(=O)N[C@@H](CC(C)C)C(=O)N[C@H](C(=O)N[C@@H](CCC(N)=O)C(=O)N[C@H](C(=O)N[C@@H](CCCCN)C(=O)N[C@H](C(=O)N[C@H](C(=O)N[C@@H](CC(=O)O)C(=O)O)[C@@H](C)O)[C@@H](C)CC)[C@@H](C)O)[C@@H](C)CC [GLP2-4]	DPP4 degradation / resistance (in words) [1]: no potency loss; also recorded: completely resistant to degradation; DPP4 degradation / resistance (in words) ([1]; listed as GLP-2-4): no potency loss
resistant to enzyme induced potency loss	CC[C@H](C)[C@H](NC(=O)[C@H](C)NC(=O)[C@H](CC(=O)O)NC(=O)[C@H](C)NC(=O)[C@H](Cc1ccc(O)cc1)NCC(F)(F)F)C(=O)N[C@@H](Cc1ccccc1)C(=O)N[C@H](C(=O)N[C@@H](CC(N)=O)C(=O)N[C@@H](CO)C(=O)N[C@@H](Cc1ccc(O)cc1)C(=O)N[C@@H](CCCNC(=N)N)C(=O)N[C@@H](CCCCN)C(=O)N[C@H](C(=O)N[C@@H](CC(C)C)C(=O)NCC(=O)N[C@@H](CCC(N)=O)C(=O)N[C@@H](CC(C)C)C(=O)N[C@@H](CO)C(=O)N[C@@H](C)C(=O)N[C@@H](CCCNC(=N)N)C(=O)N[C@@H](CCCCN)C(=O)N[C@@H](CC(C)C)C(=O)N[C@@H](CC(C)C)C(=O)N[C@@H](CCC(N)=O)C(=O)N[C@@H](CC(=O)O)C(=O)N[C@H](C(=O)N[C@@H](CCSC)C(=O)N[C@@H](CO)C(=O)N[C@@H](CCCNC(=N)N)C(N)=O)[C@@H](C)CC)C(C)C)[C@@H](C)O [GH29-4]	–
virtually complete DPP4 resistance	CC[C@H](C)[C@H](NC(=O)[C@H](Cc1ccccc1)NC(=O)[C@H](CCC(=O)O)NC(=O)[C@H](CCCCN)NC(=O)[C@H](C)NC(=O)[C@H](C)NC(=O)[C@H](CCC(N)=O)NC(=O)CNC(=O)[C@H](CCC(=O)O)NC(=O)[C@H](CC(C)C)NC(=O)[C@H](Cc1ccc(O)cc1)NC(=O)[C@H](CO)NC(=O)[C@H](CO)NC(=O)[C@@H](NC(=O)[C@H](CC(=O)O)NC(=O)[C@H](CO)NC(=O)[C@@H](NC(=O)[C@H](Cc1ccccc1)NC(=O)[C@@H](NC(=O)CNC(=O)[C@H](CCC(=O)O)NC(=O)[C@H](C)NC(=O)[C@H](Cc1c[nH]cn1)NCC(C)C)[C@@H](C)O)[C@@H](C)O)C(C)C)C(=O)N[C@@H](C)C(=O)N[C@@H](Cc1c[nH]c2ccccc12)C(=O)N[C@@H](CC(C)C)C(=O)N[C@H](C(=O)N[C@@H](CCCCN)C(=O)NCC(=O)N[C@@H](CCCNC(=N)N)C(N)=O)C(C)C [G-6, isobutyl GLP-1]	–
virtually complete DPP4 resistance	CC[C@H](C)[C@H](NC(=O)[C@H](Cc1ccccc1)NC(=O)[C@H](CCC(=O)O)NC(=O)[C@H](CCCCN)NC(=O)[C@H](C)NC(=O)[C@H](C)NC(=O)[C@H](CCC(N)=O)NC(=O)CNC(=O)[C@H](CCC(=O)O)NC(=O)[C@H](CC(C)C)NC(=O)[C@H](Cc1ccc(O)cc1)NC(=O)[C@H](CO)NC(=O)[C@H](CO)NC(=O)[C@@H](NC(=O)[C@H](CC(=O)O)NC(=O)[C@H](CO)NC(=O)[C@@H](NC(=O)[C@H](Cc1ccccc1)NC(=O)[C@@H](NC(=O)CNC(=O)[C@H](CCC(=O)O)NC(=O)[C@H](C)NC(=O)[C@H](Cc1c[nH]cn1)NCc1ccccc1)[C@@H](C)O)[C@@H](C)O)C(C)C)C(=O)N[C@@H](C)C(=O)N[C@@H](Cc1c[nH]c2ccccc12)C(=O)N[C@@H](CC(C)C)C(=O)N[C@H](C(=O)N[C@@H](CCCCN)C(=O)NCC(=O)N[C@@H](CCCNC(=N)N)C(N)=O)C(C)C [benzyl]	–
–	CCCCCCCCCCCCCCCC(=O)N[C@@H](CCC(=O)NCCCC[C@H](NC(=O)[C@H](C)NC(=O)[C@H](C)NC(=O)[C@H](CCC(N)=O)NC(=O)CNC(=O)[C@H](CCC(=O)O)NC(=O)[C@H](CC(C)C)NC(=O)[C@H](Cc1ccc(O)cc1)NC(=O)[C@H](CO)NC(=O)[C@H](CO)NC(=O)[C@@H](NC(=O)[C@H](CC(=O)O)NC(=O)[C@H](CO)NC(=O)[C@@H](NC(=O)[C@H](Cc1ccccc1)NC(=O)[C@@H](NC(=O)CNC(=O)[C@H](CCC(=O)O)NC(=O)[C@H](C)NC(=O)[C@@H](N)Cc1cnc[nH]1)[C@@H](C)O)[C@@H](C)O)C(C)C)C(=O)N[C@@H](CCC(=O)O)C(=O)N[C@@H](Cc1ccccc1)C(=O)N[C@H](C(=O)N[C@@H](C)C(=O)N[C@@H](Cc1c[nH]c2ccccc12)C(=O)N[C@@H](CC(C)C)C(=O)N[C@H](C(=O)N[C@@H](CCCNC(=N)N)C(=O)NCC(=O)N[C@@H](CCCNC(=N)N)C(=O)NCC(=O)O)C(C)C)[C@@H](C)CC)C(=O)O [liraglutide]	potency loss after incubation with DPP4 ([2]; overnight incubation with the enzyme, GLP-1R readout): > 50 fold
stability against DPP4	CC[C@H](C)[C@H](NC(=O)[C@H](Cc1ccccc1)NC(=O)[C@H](CCC(=O)O)NC(=O)[C@H](CCCCN)NC(=O)[C@H](C)NC(=O)[C@H](C)NC(=O)[C@H](CCC(N)=O)NC(=O)CNC(=O)[C@H](CCC(=O)O)NC(=O)[C@H](CC(C)C)NC(=O)[C@H](Cc1ccc(O)cc1)NC(=O)[C@H](CO)NC(=O)[C@H](CO)NC(=O)[C@@H](NC(=O)[C@H](CC(=O)O)NC(=O)[C@H](CO)NC(=O)[C@@H](NC(=O)[C@H](Cc1ccccc1)NC(=O)[C@@H](NC(=O)CNC(=O)[C@H](CCC(=O)O)NC(=O)[C@H](C)NC(=O)[C@H](Cc1c[nH]cn1)NC(C)=O)[C@@H](C)O)[C@@H](C)O)C(C)C)C(=O)N[C@@H](C)C(=O)N[C@@H](Cc1c[nH]c2ccccc12)C(=O)N[C@@H](CC(C)C)C(=O)N[C@H](C(=O)N[C@@H](CCCCN)C(=O)NCC(=O)N[C@@H](CCCNC(=N)N)C(N)=O)C(C)C [GLP-1b]	–

Molecule	DPP4 degradation / resistance (in words) [2]	other results
Glucagon	degraded by DPP4	–
